Experimental findings from PubChem BioAssay AID192 (DTP/NCI, 2004) are described below.

SMILES strings stand for the structures. “And” between values parts separate entries of the source, which are not always exact repeats. Equal entries are not always repeated. Toxic doses and inconclusive results are not listed. Peptide text beside a SMILES is read from it.

This test concerns BDF1 mice, B16 melanoma ip, median survival T/C. The experiment in a line: NCI In Vivo Anticancer Drug Screen. Data for tumor model B16 Melanoma (intraperitoneal) in B6D2F1 (BDF1) mice. The settings on record: endpoint: median survival time, higher = longer survival. The gist of the method: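 Antitumor activity is assessed in mice bearing a transplanted tumor, with survival or tumor size compared against vehicle-dosed controls and expressed as T/C.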

Setting [1] is: dose: 50.0 mg/kg/injection, schedule: Q01DX009 (ip), vehicle: saline.
[2] abbreviates: dose: 100.0 mg/kg/injection, schedule: Q01DX009 (ip), vehicle: saline.
[3] abbreviates: dose: 50.0 mg/kg/injection, schedule: Q01DX009 (ip), vehicle: saline with Tween-80.
The mark [4] stands for this setting: dose: 100.0 mg/kg/injection, schedule: Q01DX009 (ip), vehicle: saline with Tween-80.

As to `CC1COS(=O)O1` (stereo not drawn), the T/C reads like this: (dose: 10.0 mg/kg/injection, schedule: Q01DX009 (ip), vehicle: saline sonified) 102 % of control; (dose: 20.0 mg/kg/injection, schedule: Q01DX009 (ip), vehicle: saline sonified) 100 % of control; (dose: 40.0 mg/kg/injection, schedule: Q01DX009 (ip), vehicle: saline sonified) 102 % of control.

Take `COC(OC(CO)C(O)S(=O)(=O)O)C(O)S(=O)(=O)O` (stereo not drawn): the T/C (dose: 12.5 mg/kg/injection, schedule: Q01DX009 (ip), vehicle: saline) is 104 % of control; the T/C (dose: 25.0 mg/kg/injection, schedule: Q01DX009 (ip), vehicle: saline) is 107 % of control; the T/C under setting [1] is 111 % of control; the T/C under setting [2] is 119 % of control.

In the case of `CC(=O)N(C)N=Nc1ccc(C)cc1`, the T/C by setting is: (dose: 8.75 mg/kg/injection, schedule: Q01DX009 (ip), vehicle: Klucel (hydroxypropylcellulose) (HPC)) 103 % of control; (dose: 17.5 mg/kg/injection, schedule: Q01DX009 (ip), vehicle: Klucel (hydroxypropylcellulose) (HPC)) 103 % of control.

`CCC(N)Cc1ccc(OC)c(OC)c1` (stereo not drawn): the T/C is 97 % of control (dose: 50.0 mg/kg/injection, schedule: Q01DX009 (ip), vehicle: Klucel (hydroxypropylcellulose) (HPC)); 102 % of control (dose: 100.0 mg/kg/injection, schedule: Q01DX009 (ip), vehicle: Klucel (hydroxypropylcellulose) (HPC)); 105 % of control (dose: 200.0 mg/kg/injection, schedule: Q01DX009 (ip), vehicle: Klucel (hydroxypropylcellulose) (HPC)).

For the molecule `OC(C1CO1)C(O)C1CO1` (stereo not drawn), the T/C (dose: 0.12 mg/kg/injection, schedule: Q01DX009 (ip), vehicle: saline) is 118 % of control; the T/C (dose: 0.13 mg/kg/injection, schedule: Q03HX024 (ip), vehicle: saline) is 114 % of control; the T/C (dose: 0.25 mg/kg/injection, schedule: Q01DX009 (ip), vehicle: saline) is 104 % of control and 107 % of control and 110 % of control; the T/C (dose: 0.25 mg/kg/injection, schedule: Q03HX008 (ip), vehicle: saline) was 123 % of control; the T/C (dose: 0.25 mg/kg/injection, schedule: Q03HX016 (ip), vehicle: saline) was 120 % of control; the T/C (dose: 0.5 mg/kg/injection, schedule: Q01DX005 (ip), vehicle: saline) was 113 % of control. Further, the T/C (dose: 0.5 mg/kg/injection, schedule: Q03HX008 (ip), vehicle: saline) was 120 % of control; the T/C (dose: 1.0 mg/kg/injection, schedule: Q01DX005 (ip), vehicle: saline) is 119 % of control; the T/C (dose: 1.0 mg/kg/injection, schedule: Q03HX016 (ip), vehicle: saline) is 152 % of control; the T/C (dose: 1.0 mg/kg/injection, schedule: Q03HX024 (ip), vehicle: saline) is 172 % of control; the T/C (dose: 2.0 mg/kg/injection, schedule: Q01DX005 (ip), vehicle: saline) was 153 % of control; the T/C (dose: 2.0 mg/kg/injection, schedule: Q03HX008 (ip), vehicle: saline) is 160 % of control. Further, the T/C was 214 % of control (dose: 2.0 mg/kg/injection, schedule: Q03HX016 (ip), vehicle: saline); 158 % of control (dose: 4.0 mg/kg/injection, schedule: Q01DX001 (ip), vehicle: saline); 192 % of control (dose: 4.0 mg/kg/injection, schedule: Q01DX005 (ip), vehicle: saline); 184 % of control (dose: 4.0 mg/kg/injection, schedule: Q01DX009 (ip), vehicle: saline sonified); 158 % of control (dose: 4.0 mg/kg/injection, schedule: Q08DX002 (ip), vehicle: saline); 204 % of control (dose: 8.0 mg/kg/injection, schedule: Q01DX001 (ip), vehicle: saline). Besides, the T/C is, setting by setting: (dose: 8.0 mg/kg/injection, schedule: Q04DX003 (ip), vehicle: saline) 171 % of control; (dose: 8.0 mg/kg/injection, schedule: Q08DX002 (ip), vehicle: saline) 208 % of control.

For `CCOC(=O)C(CC)(CCC(C)C)C(=O)OCC`, the T/C runs as follows: (dose: 25.0 mg/kg/injection, schedule: Q01DX009 (ip), vehicle: saline with Tween-80) 102 % of control; under setting [3], 99 % of control; under setting [4], 97 % of control.

Take `O=C1O/C(=C\c2ccccc2)c2c(Br)c(Br)c(Br)c(Br)c21`: the T/C runs as follows: under setting [3], 112 % of control; under setting [4], 107 % of control; (dose: 200.0 mg/kg/injection, schedule: Q01DX009 (ip), vehicle: saline with Tween-80) 112 % of control; (dose: 400.0 mg/kg/injection, schedule: Q01DX009 (ip), vehicle: saline with Tween-80) 112 % of control.

`NC(CCC(=O)O)C(=O)NC(CCC(=O)O)C(=O)O` (stereo not drawn) (H-Glu-Glu-OH; configuration not given here): the T/C by setting is: under setting [1], 97 % of control; under setting [2], 96 % of control; (dose: 200.0 mg/kg/injection, schedule: Q01DX009 (ip), vehicle: saline) 93 % of control; (dose: 400.0 mg/kg/injection, schedule: Q01DX009 (ip), vehicle: saline) 91 % of control.
